According to ChEMBL document CHEMBL4000165, “Chemosensitizing effect of Paris Saponin I on Camptothecin and 10-hydroxycamptothecin in lung cancer cells via p38 MAPK, ERK, and Akt signaling pathways” (Eur J Med Chem, 2017):
Calls of active or inactive are those of the source.

Columns and labels:
[1] = tested on: NCI-H520; test: Cytotoxicity against human NCI-H520 cells assessed as reduction in cell viability after 48 hrs by MTT assay; assay type: functional, cell-based; conditions: NCI-H520, 48 h
[2] = tested on: NCI-H446; test: Cytotoxicity against human NCI-H446 cells assessed as reduction in cell viability after 48 hrs by MTT assay; assay type: functional, cell-based; conditions: NCI-H446, 48 h
[3] = tested on: NCI-H1299; test: Cytotoxicity against human NCI-H1299 cells assessed as reduction in cell viability by measuring combinantion index at 0.3 to 0.6 uM after 48 hrs in presence of CPT by MTT assay; assay type: functional
[4] = tested on: NCI-H520; test: Cytotoxicity against human NCI-H520 cells assessed as reduction in cell viability at 0.3 to 0.6 uM after 48 hrs in presence of CPT by MTT assay; assay type: functional, cell-based
[5] = tested on: NCI-H460; test: Cytotoxicity against human NCI-H460 cells assessed as reduction in cell viability by measuring combinantion index at 0.3 to 0.6 uM after 48 hrs in presence of CPT by MTT assay; assay type: functional
[6] = tested on: NCI-H1299; test: Cytotoxicity against human NCI-H1299 cells assessed as reduction in cell viability at 0.3 to 0.6 uM after 48 hrs in presence of HCPT by MTT assay; assay type: functional, cell-based
[7] = tested on: NCI-H1299; test: Induction of apoptosis in human NCI-H1299 cells at 0.3 uM up to 20 mins in presence of CPT by acridine orange/ ethidium bromide staining based fluorescence microscopic method relative to control; assay type: functional
[8] = tested on: NCI-H1299; test: Induction of apoptosis in human NCI-H1299 cells at 0.3 uM up to 20 mins in presence of HCPT by acridine orange/ ethidium bromide staining based fluorescence microscopic method relative to control; assay type: functional
[9] = tested on: NCI-H460; test: Induction of apoptosis in human NCI-H460 cells at 0.6 uM up to 20 mins in presence of CPT by acridine orange/ ethidium bromide staining based fluorescence microscopic method relative to control; assay type: functional
[10] = tested on: NCI-H460; test: Induction of apoptosis in human NCI-H460 cells at 0.6 uM up to 20 mins in presence of HCPT by acridine orange/ ethidium bromide staining based fluorescence microscopic method relative to control; assay type: functional
[11] = tested on: NCI-H1299; test: Induction of apoptosis in human NCI-H1299 cells at 0.3 uM after 24 to 48 hrs by Annexin-V FITC/propidium iodide staining based flow cytometry; assay type: functional, cell-based
[12] = tested on: NCI-H446; test: Induction of apoptosis in human NCI-H446 cells at 0.6 uM after 24 to 48 hrs by Annexin-V FITC/propidium iodide staining based flow cytometry; assay type: functional, cell-based
[13] = tested on: NCI-H1299; test: Induction of apoptosis in human NCI-H1299 cells assessed as pro-apoptotic cells at 0.3 uM after 48 hrs in presence of CPT by Annexin-V FITC/propidium iodide staining based flow cytometry; assay type: functional
[14] = tested on: NCI-H1299; test: Induction of apoptosis in human NCI-H1299 cells assessed as increase in caspase-9 expression at 0.3 uM in presence of CPT by Western blot method; assay type: functional, cell-based
[15] = tested on: NCI-H446; test: Induction of apoptosis in human NCI-H446 cells assessed as increase in caspase-9 expression at 0.6 uM in presence of CPT by Western blot method; assay type: functional, cell-based
[16] = tested on: NCI-H1299; test: Induction of apoptosis in human NCI-H1299 cells assessed as increase in caspase-9 expression at 0.3 uM in presence of HCPT by Western blot method; assay type: functional, cell-based
[17] = tested on: NCI-H460; test: Induction of apoptosis in human NCI-H460 cells assessed as increase in caspase-9 expression at 0.6 uM in presence of HCPT by Western blot method; assay type: functional, cell-based
[18] = tested on: NCI-H446; test: Induction of apoptosis in human NCI-H446 cells assessed as increase in caspase-9 expression at 0.6 uM in presence of HCPT by Western blot method; assay type: functional, cell-based
[19] = tested on: NCI-H446; test: Induction of apoptosis in human NCI-H446 cells assessed as increase in Bax expression at 0.6 uM in presence of CPT by Western blot method; assay type: functional, cell-based
[20] = tested on: NCI-H446; test: Induction of apoptosis in human NCI-H446 cells assessed as downregulation of Bcl2 expression at 0.6 uM in presence of CPT by Western blot method; assay type: functional, cell-based
[21] = tested on: NCI-H1299; test: Decrease in p38 MAPK protein expression in human NCI-H1299 cells at 0.3 uM in presence of HCPT by Western blot method; assay type: functional, cell-based
[22] = biological target: T1, MAP kinase p38 (Homo sapiens) (UniProt O15264+Q15759+Q16539+P53778); test: Increase in p38 MAPK phosphorylation in human NCI-H1299 cells at 0.3 uM in presence of CPT by Western blot method; assay type: cell-based
[23] = species on record: Homo sapiens; test: Decrease in Akt phosphorylation in human NCI-H460 cells at 0.6 uM in presence of CPT by Western blot method; assay type: cell-based
[24] = biological target: T2, Mitogen-activated protein kinase; ERK1/ERK2 (Homo sapiens) (UniProt P27361+P28482); test: Decrease in ERK1/2 phosphorylation in human NCI-H460 cells at 0.6 uM in presence of CPT by Western blot method; assay type: cell-based
[25] = biological target: T2, Mitogen-activated protein kinase; ERK1/ERK2 (Homo sapiens); test: Decrease in ERK1/2 phosphorylation in human NCI-H460 cells at 0.6 uM in presence of HCPT by Western blot method; assay type: cell-based
[26] = biological target: T3, c-Jun N-terminal kinase, JNK (Homo sapiens) (UniProt P45983+P53779+P45984); test: Increase in JNK phosphorylation in human NCI-H460 cells at 0.6 uM in presence of CPT by Western blot method; assay type: cell-based
[27] = biological target: T3, c-Jun N-terminal kinase, JNK (Homo sapiens); test: Increase in JNK phosphorylation in human NCI-H460 cells at 0.6 uM in presence of HCPT by Western blot method; assay type: cell-based
[28] = species on record: Homo sapiens; test: Effect on Akt phosphorylation in human NCI-H446 cells at 0.6 uM in presence of HCPT by Western blot method; assay type: cell-based
[29] = tested on: NCI-H446; test: Effect on ERK1/2 protein expression in human NCI-H446 cells at 0.6 uM in presence of HCPT by Western blot method; assay type: functional, cell-based
[30] = biological target: T2, Mitogen-activated protein kinase; ERK1/ERK2 (Homo sapiens); test: Effect on ERK1/2 phosphorylation in human NCI-H446 cells at 0.6 uM in presence of HCPT by Western blot method; assay type: cell-based
[31] = biological target: T2, Mitogen-activated protein kinase; ERK1/ERK2 (Homo sapiens); test: Effect on ERK1/2 phosphorylation in human NCI-H446 cells at 0.6 uM in presence of CPT by Western blot method; assay type: cell-based
[32] = tested on: NCI-H446; test: Effect on Akt protein expression in human NCI-H446 cells at 0.6 uM in presence of CPT by Western blot method; assay type: functional, cell-based
[33] = tested on: NCI-H446; test: Effect on p38 MAPK protein expression in human NCI-H446 cells at 0.6 uM in presence of HCPT by Western blot method; assay type: functional, cell-based
[34] = tested on: NCI-H446; test: Effect on p38 MAPK protein expression in human NCI-H446 cells at 0.6 uM in presence of CPT by Western blot method; assay type: functional, cell-based
[35] = biological target: T1, MAP kinase p38 (Homo sapiens); test: Effect on p38 MAPK phosphorylation in human NCI-H446 cells at 0.6 uM in presence of HCPT by Western blot method; assay type: cell-based
[36] = biological target: T1, MAP kinase p38 (Homo sapiens); test: Effect on p38 MAPK phosphorylation in human NCI-H446 cells at 0.6 uM in presence of CPT by Western blot method; assay type: cell-based

T2 sequence (P27361 whole entry, looked up): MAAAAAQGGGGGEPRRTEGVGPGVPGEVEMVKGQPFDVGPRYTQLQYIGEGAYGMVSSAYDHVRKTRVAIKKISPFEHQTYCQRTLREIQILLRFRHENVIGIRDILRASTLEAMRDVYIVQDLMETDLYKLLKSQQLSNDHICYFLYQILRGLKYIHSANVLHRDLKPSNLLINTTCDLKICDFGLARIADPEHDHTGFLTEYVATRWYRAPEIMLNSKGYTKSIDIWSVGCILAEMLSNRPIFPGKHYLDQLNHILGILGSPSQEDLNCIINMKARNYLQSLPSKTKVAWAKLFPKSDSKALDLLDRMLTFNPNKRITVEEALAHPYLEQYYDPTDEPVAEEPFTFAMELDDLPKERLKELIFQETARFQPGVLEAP
T2 sequence (P28482 whole entry, looked up): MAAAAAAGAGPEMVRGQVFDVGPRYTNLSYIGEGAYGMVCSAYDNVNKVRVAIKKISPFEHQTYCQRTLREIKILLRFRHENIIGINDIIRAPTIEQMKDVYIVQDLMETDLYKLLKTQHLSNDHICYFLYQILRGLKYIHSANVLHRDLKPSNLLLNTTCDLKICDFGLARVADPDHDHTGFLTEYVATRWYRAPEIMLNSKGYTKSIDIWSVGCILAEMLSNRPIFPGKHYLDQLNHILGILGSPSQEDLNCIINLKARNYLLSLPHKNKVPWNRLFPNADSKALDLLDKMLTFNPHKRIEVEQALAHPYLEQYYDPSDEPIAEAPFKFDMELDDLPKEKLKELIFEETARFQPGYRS

C[C@@H]1CC[C@@]2(OC1)O[C@H]1C[C@H]3[C@@H]4CC=C5C[C@@H](O[C@@H]6O[C@H](CO)[C@@H](O[C@@H]7O[C@@H](CO)[C@H](O)[C@H]7O)[C@H](O)[C@H]6O[C@@H]6O[C@@H](C)[C@H](O)[C@@H](O)[C@H]6O)CC[C@]5(C)[C@H]4CC[C@]3(C)[C@H]1[C@@H]2C
inactive: Activity [32] | Activity [33] | Activity [34] | Activity [35] | Activity [36]
2: fold change (FC) [7] | fold change (FC) [8] | fold change (FC) [9] | fold change (FC) [10]
active: Activity [4] | Activity [6] | Activity [11] | Activity [12] | Activity [14] | Activity [15] | Activity [16] | Activity [17] | Activity [18] | Activity [19] | Activity [20] | Activity [21] | Activity [22] | Activity [23] | Activity [24] | Activity [25] | Activity [26] | Activity [27] | Activity [28] | Activity [29] | Activity [30] | Activity [31]
60%: Activity [13]
< 1 µM: IC50 [1] | IC50 [2]
<1: CI [3] | CI [5]
